Data published in patent US9242937B2, “Pharmaceutically active disubstituted pyridine derivatives” (Bayer Intellectual Property GmbH, priority 2011, dated 2016).

System: cellular CDK9 activity (RNA Polymerase II Ser2 phosphorylation) in HCT-116 cells
Assay: RNA-Polymerase II Ser2 cellular phosphorylation assay
Type: cell-based
Conditions: Homo sapiens, 72 h, normalized with tubulin, read-out: RNA Polymerase II Ser2 Phosphorylation (activity range), IC50
Procedure: HCT-116 cells (DSMZ, Braunschweig, Germany) were maintained in Mc Coy's cell culture medium+glutamine (PAN Biotech GmbH, Aidenbach, Germany) supplemented with 10% fetal calf serum (PAA Laboratories GmbH, Pasching, Austria) and grown at 37° C., 5% CO2. For the cellular phosphorylation assay, cells were seeded with 2×10^5 cells/well/1 ml in 24-well plates (Greiner Bio One, Frickenhausen, Germany; catalog #662160). The compounds of general formula (I) summarized in Table 6 were diluted from a 10 mM DMSO stock solution 1:10 in a total volume of 15 μL DMSO. After overnight incubation at 37° C./5% CO2, 1.5 μL of a compound diluted in DMSO was added to each sample well. Wells with cells and 0.15% DMSO in culture medium were used as positive controls, wells without cells and 0.15% DMSO in culture medium were used as negative controls. The cells were incubated with the compounds for 72 h at 37° C./5% CO2. […] Phosphorylation of RNA Polymerase II Ser2 and tubulin levels for normalization were analyzed afterwards with the Multi-Array technology (Meso Scale Discovery, Gaithersburg, Md., USA), a combination of antibody coupled electrochemiluminescence detection and patterned arrays. […] Finally, plates were washed three times with Tris Wash Buffer, 150 μl 2× Read Buffer (Meso Scale Discovery) were added per well and plates were analyzed immediately in a Sector Imager from Meso Scale Discovery. […]

## COc1ccccc1-c1ccnc(Nc2cccc(S(N)(=O)=O)c2)c1 [Compound D1, 3-[(4-(2-Methoxyphenyl)pyridin-2-yl)amino]benzenesulfonamide]
  IC50: 1 to 10 µM
